Reference: patent publication US20240009203A1, “COMPOSITIONS AND METHODS FOR TREATING ALZHEIMER'S DISEASE” (Cedars-Sinai Medical Center, priority 2020, published 2024)

Columns and labels:
ADtg mice [1] = experiment: Y-maze test; type: in vivo
ADtg mice [2] = experiment: Visual X maze (visual stimuli X-maze), color mode; type: in vivo
Description: (§1) Wildtype and ADtg mice (18 months, males and females) were treated with ETP69 or vehicle (DMSO-saline) to test the effects of ETP69 in improving cognition in a mouse model of Alzheimer's disease. On day 1, mice were treated with an injection of 10 mg/kg ETP69 of vehicle. Then starting on day 2, mice were tested in various behavioral tests, including Y-maze, visual test alternation, Open Field-Barnes Maze, and/or fear conditioning. On either day 4 or day 19 mice were sacrificed, and tissues analyzed for histone trimethylation levels, A-beta levels, immunohistochemistry (GFAP, IGF1), Spine count (Golgi-Cox staining), —Neurotrophic support and synaptic markers.
The results of the Koronyo's Visual X Maze (color) indicate visual-cognitive memory and learning.
(§2) The effects of single and repeated ETP69 injections in mice were tested. The experimental timeline is depicted in FIG. 8. Three parallel injection conditions were tested: a single ETP69 condition, a boosted ETP69 injection, and repeated ETP69 injections, as depicted in Table 2. The single injection mice received one injection of ETP69 or DMSO at Day 0. The mice that received a boosted injection received one injection of ETP69 or DMSO at day 0 and one injection at day 9. The mice that received repeated injections received 11 injections of ETP69 or DMSO at day 0 or day 9. Both wildtype and AD model (APP/PS1-transgenic) mice were tested.
(§3) FIG. 10A-10D depicts the results of the mice on the color mode of the visual stimuli X-maze test. […] FIG. 10E-10F depict the results of the contrast mode of the visual stimuli X-maze test.
(§4) The effects of ETP69 injections in 14 month old mice was tested. Wildtype mice were divided into 2 treatment groups, mice that received an ETP69 injection (n=10) and mice that received a DMSO injection (N=10). AD+ mice were divided into 2 treatment groups, mice that received an ETP69 injection (n=8) and mice that received a DMSO injection (N=7). The experimental protocol is depicted in FIG. 15.
Mice were tested for visual-cognitive memory and learning using a visual X maze.
(§5) 18 month old wildtype and AD+ mice were administered an oral dose of 50 mg/kg ETP69 or oraB once a day for 4 weeks. The experimental protocol is depicted in FIG. 23.
On day 1, the mice were tested in the open field test as depicted in FIG. 24A. Rearing and total locomotor activity were measured in mice administered oraB and ETP69 (FIG. 24B-24G). On day 2, mice were tested in the color visual-stimuli X-maze. […] On day 3, mice were tested in the contrast visual-stimuli X-maze. Results are depicted in FIG. 26A-26E.

AD+ mice = experiment: Visual stimuli X-maze, contrast mode; type: in vivo; conditions: 18 mo, i.p. 10 mg/kg, contrast mode (FIG. 10E-10F)
Description: as §2, §3

ADtg mice [3] = experiment: Open Field-Barnes Maze test; type: in vivo
Description: as §1
The results of the Open Field-Barnes Maze test indicate hippocampal-based spatial learning and memory.
as §2
The results of the Open Field Barnes Maze test indicate hippocampal-based spatial memory and learned. […] A comparison of results of single (S), boost (B) and repeated (R) injections is depicted in FIG. 11D-11H.
as §5
On days 4-7 mice were tested on the training phase of the Barnes Maze (FIG. 27A). On day 10, mice were tested on the retention phase. On days 11-12, mice were tested on the reversal phase. Results are depicted in FIG. 27B-27E.

ADtg mice [4] = experiment: Fear conditioning test; type: in vivo
Description: as §1
The results of the fear conditioning test indicate spatial memory.
as §2, §4
The fear conditioning test was used to indicate spatial memory.

dendritic spines = experiment: Golgi-Cox staining of brain sections (dendritic spines); type: in vivo, mice
Description: as §1
Chromium salts which bind to proteins in the neuron are randomly formed during the impregnation, then transformed to black mercuric sulfide deposits upon alkali treatment (Ramón-Moliner, 1970; Špaček, 1989; Rosoklija et al., 2014). The architecture of the impregnated neuron, including cell somas, axons, dendrites and spines, could be easily visualized. It is expected that qualitative observations by these measures of brains from ADtg mice treated with ETP69 will show higher spine density as compared to brains of DMSO-injected control ADtg mice. FIG. 7A-7D include Golgi-Cox stain images of whole neurons and their dendritic projections.
The right brain hemispheres of 18 month old mice were stained with the Golgi-Cox method to detect the cytoarchitecture and morphology of neurons. FIG. 13A depicts representative images of the cingulate cortex of mice administered DMSO or ETP69 and FIG. 13B depicts a representative image of the hippocampal area of a mouse treated with ETP69.

H3K9me3 = H3K9me3 brain staining and quantification; type: in vivo, mice
Source text: (§6) 18 month old AD+ mice brains were stained for neuronal H3K9me3 and DAPI. FIG. 14A is a representative image of the H3K9me3 signal across cortical layers. FIG. 14B is a representative image comparing ETP69 treated and DMSO control brains. […] FIG. 14D depicts immunohistochemistry of 6E10+ amyloid-beta plaques and GFAP+ astrogliosis in coronal sections of AD+ mice treated with ETP69 or DMSO.

[5] = test system: 6E10+ amyloid-beta plaques; experiment: Immunohistochemistry of 6E10+ amyloid-beta plaques; type: in vivo, mice
Source text: FIG. 14A is a representative image of the H3K9me3 signal across cortical layers. FIG. 14B is a representative image comparing ETP69 treated and DMSO control brains. […] FIG. 14D depicts immunohistochemistry of 6E10+ amyloid-beta plaques and GFAP+ astrogliosis in coronal sections of AD+ mice treated with ETP69 or DMSO.

GFAP = experiment: GFAP+ astrogliosis (immunohistochemistry, western blot); type: in vivo, mice
Source text: as §6

Iba1 = Iba1 immunohistochemistry; type: in vivo; conditions: 14 month old AD+ mice, compared to untreated AD+ mice (FIG. 18E)
[6] = test system: cerebral macrophages, microglia, and astrocytes; experiment: Effects on cerebral inflammatory cells (FIG. 21A-21L); type: in vivo; conditions: AD+ mice (FIG. 21A-21L)
Source text: These phagocytic inflammatory cells may be involved in immune activation and clearing toxic Aβ. Restoring a young phenotype may explain reduced neuroinflammation and Aβ plaques in the ETP69 treated AD+ mice.

global proteome = experiment: Global proteome mass spectrometry analysis of brains; type: in vivo, mice
Source text: Overall, the experiments in these examples from multiple cohorts of 14- and 18-month-old murine models of AD (AD+ mice) and age/gender-matched control mice provide support that by inhibiting the enzyme SUV39H1 that regulates H3K9me3 via ETP69 compound (AKA NT1721), the chromatin state of subjects may be altered, and memory and synaptic plasticity may be restored in aging and AD brains. The therapeutic usefulness of ETP69 has been shown in the experiments described in these examples, in both aged WT mice and the well-established transgenic mouse models of AD (APPSWE/PS1ΔE9, AD+ mice), following a single (S), a boost (B), or once a week repeated (R) i.p. injections of ETP69. […] Additionally, in investigation of whole proteome profiles by mass spectrometry identified some mechanisms of action for ETP69 in the aged WT and AD+ mice.
(§7) FIGS. 19A, 19B, and 20 include global proteome data from a mass spectrometry analysis. […] Some of these proteins, such as HPX, may be involved in anti-oxidative-stress or anti-inflammatory pathways.

BDNF pathway = experiment: Ingenuity pathway analysis of proteome data, BDNF pathway; set-up: species or system mice; conditions: FIG. 19B, p<0.0001
Source text: as §7

[7] = test system: proteins related to learning, cognition, conditioning, anxiety; experiment: Ingenuity analysis of behavioral pathways; set-up: species or system mice; conditions: FIG. 20
Source text: as §7

BDNF = BDNF expression in hippocampus; type: in vivo; conditions: dentate gyrus and other hippocampal regions, 18-mo-old AD-Tg mice, single ETP69 injection (FIG. 22)
Description: (§8) Expression of VGF, BDNF, and NCAM was analyzed in 18-month AD+ mice following a single ETP69 injection. Representative images are depicted in FIG. 22.

VGF = VGF expression in hippocampus; type: in vivo; conditions: dentate gyrus and other hippocampal regions, 18-mo-old AD-Tg mice, single ETP69 injection (FIG. 22)
Description: as §8

[8] = humans; cited from earlier work
[9] = AD+ mice, 18 mo, i.p. 10 mg/kg, color mode (FIG. 10A-10D)
[10] = ADtg mice, 18 months, injection of 10 mg/kg, compared with vehicle treated mice (FIG. 4A-4J)
[11] = ADtg mice, 18 months, injection of 10 mg/kg, compared with vehicle treated mice (FIG. 5A-5C)
[12] = cingulate cortex and hippocampus, 18 month old mice (FIG. 13C-13D)

CN1C(=O)[C@@]23C[C@](C)(C#N)[C@H](c4ccc5c(c4)OCO5)N2C(=O)[C@]1(C)SS3 (racemic) [ETP69, Rac-(3S,6S,7S,8aS)-6-(benzo[d][1,3]dioxol-5-yl)-2,3,7-trimethyl-1,4-dioxohexahydro-6H-3,8a-epidithiopyrrolo[1,2-a]pyrazine-7-carbonitrile]
percent alternation (ADtg mice [1]; AD+ mice, 18 mo, i.p. 10 mg/kg, vs AD+ DMSO (FIG. 9B)): significant increase | percent spontaneous alternation (ADtg mice [1]; ADtg mice, 18 months, injection of 10 mg/kg ETP69, compared with vehicle treated mice (FIG. 3A-3B)): improvement | number of total entries (ADtg mice [1]; both wildtype and AD+ mice, 18 mo, i.p. 10 mg/kg in DMSO, single/boost/repeated (FIG. 9A), indicates decreased locomotor activity): decreased | alternation (ADtg mice [2]; 14 month old AD+ mice, ETP69 injection, compared to untreated mice, mode not stated (FIG. 16A-16D)): improvements | bidirectional movement (ADtg mice [2]; [9]): significant increase | percent alternation (ADtg mice [2]; [9]): significant increase | color bidirectional (ADtg mice [2]; [10]): improvements | percent spontaneous alternation (ADtg mice [2]; [10]): improvements | reversing cognitive dysfunction (ADtg mice [2]; old mice (18 month), oral 50 mg/kg in oraB once a day for 4 weeks, color visual-stimuli X-maze (FIG. 25A-25E)): beneficial effects | percent alternation (AD+ mice): significant increase | memory retention (ADtg mice [3]; AD+ mice, 18 mo, i.p. 10 mg/kg, compared to AD+ mice treated with DMSO (FIG. 11A-11C)): improvement | incorrect entries (ADtg mice [3]; [11]): fewer | latency (ADtg mice [3]; [11]): reduced | memory retention (ADtg mice [3]; [11]): improvement | reversal of cognitive deficits (ADtg mice [3]; old AD-model mice (18 month), oral 50 mg/kg once a day for 4 weeks, Barnes Maze (FIG. 27B-27E)): significant reversal | freezing time (ADtg mice [4]; 14 month old AD+ mice, ETP69 injection (FIG. 17A-17B)): increase | freezing time (ADtg mice [4]; AD+ mice, 18 mo, i.p. 10 mg/kg (FIG. 12)): increased | freezing time (ADtg mice [4]; ADtg mice, 18 months, injection of 10 mg/kg (FIG. 6A-6B)): increased | association of spine preservation with errors in the Barnes maze test (dendritic spines; 18 month old mice, correlation (FIG. 13G)): reduced errors | ratio of thin spines to all spines (dendritic spines; AD+ mice, 18 month, compared to AD+ mice administered DMSO alone (FIG. 13E-13F)): significant increase | dendritic spines (dendritic spines; [12]): increase | thin (immature) spines (dendritic spines; [12]): increase | H3K9me3 (H3K9me3; 14 month old AD+ mice, compared to untreated AD+ mice (FIG. 18B)): decrease | H3K9me3 staining (H3K9me3; 18 month old AD+ mice, cortex and hippocampus (FIG. 14C)): significant decrease | 6E10 ([5]; 14 month old AD+ mice, compared to untreated AD+ mice (FIG. 18C)): decrease | decrease in the amount of 6E10 amyloid plaques ([5]; brains of 18 month old AD+ mice (FIG. 14E)): 42% | GFAP (GFAP; 14 month old AD+ mice, compared to untreated AD+ mice (FIG. 18D)): decrease | decrease of GFAP irradiance (GFAP; 18 month old AD+ mice, cingulate cortex (FIG. 14F)): 58% | Iba1 (Iba1): decrease | effects on cerebral macrophages, microglia, and astrocytes [6]: dramatic effects | proteins upregulated, AD+ mice treated with ETP69 compared to untreated AD+ mice (global proteome; brains, FIG. 19A): VAV3, CORO2A and HPX | most up-regulated proteins following ETP69 administration (global proteome; whole proteome profiles by mass spectrometry, aged WT and AD+ mice): VGF and HP/HPX | BDNF pathway activation Z-score (BDNF pathway): 2.359 | proteins related to conditioning, anxiety, and other behaviors [7]: inhibition | proteins related to learning and cognition [7]: activation | BDNF expression (BDNF): Marked increases | VGF expression (VGF): Marked increases | safety and tolerability [8]: generally safe and tolerable
